# Experimental data reported in patent US8088930B2, “Benzimidazole derivatives” (Hoffmann-La Roche Inc., priority 2008, dated 2012).
# Biological target: T1, FXR ligand binding domain (GST-FXR LBD fusion protein, human FXR aa 193-473) (Homo sapiens, UniProt Q96RI1)
# T1 construct: fused on or other part: Glutathione-S-transferase (GST) fused N-terminally to the FXR LBD, used to capture the protein on glutathione SPA beads
# T1 sequence (Q96RI1 211-486 limits assumed): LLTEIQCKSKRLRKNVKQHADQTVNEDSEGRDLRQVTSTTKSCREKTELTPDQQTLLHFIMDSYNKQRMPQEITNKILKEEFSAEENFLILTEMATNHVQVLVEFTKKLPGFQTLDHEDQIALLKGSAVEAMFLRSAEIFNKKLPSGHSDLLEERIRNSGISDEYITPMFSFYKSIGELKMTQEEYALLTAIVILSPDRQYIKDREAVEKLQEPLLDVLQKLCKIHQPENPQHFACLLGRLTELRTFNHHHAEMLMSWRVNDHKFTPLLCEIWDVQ
# Test: Radioligand binding assay (scintillation proximity, radioligand displacement)
# Conditions: 40 nM GST-FXR LBD on SPA beads, test compound 6×10^−9 M to 2.5×10^−5 M, read-out: h-IC50 Binding
# Description: The following tests were carried out in order to determine the activity of the compounds of formula (I).
# To accomplish this, the portions of the sequences encoding the FXR LBD were amplified by polymerase chain reaction (PCR) from a full-length clone by PCR and then subcloned into the plasmid vectors. The final clone was verified by DNA sequence analysis.
# The induction, expression, and subsequent purification of GST-LBD fusion protein was performed in E. coli strain BL21(pLysS) cells by standard methods (Current Protocols in Molecular Biology, Wiley Press, ed. Ausubel et al.).
# Radioligand Binding Assay
# Binding of test substances to the FXR ligand binding domain was assessed in a radioligand displacement assay. The assay was performed in a buffer consisting of 50 mM Hepes, pH 7.4, 10 mM NaCl, 5 mM MgCl2, 0.01% CHAPS. For each reaction well in a 96-well plate, 40 nM of GST-FXR LBD fusion protein was bound to 10 μg glutathione yttrium silicate SPA beads (Pharmacia Amersham) in a final volume of 50 μl by shaking. A radioligand (e.g., 20 nM of 2,N-dicyclohexyl-2-[2-(2,4 dimethoxy-phenyl)-benzoimidazol-1-yl]-acetamide) and test compounds were added, and scintillation proximity counting was performed. All binding assays were performed in 96-well plates and the amount of bound ligand was measured on a Packard TopCount using OptiPlates (Packard).
row,IC50 [µM],SMILES
1,0.02,"Cc1cc(-c2nnn[nH]2)cc(C)c1OCC(C1CCCCC1)n1c(-c2ccc(Cl)cc2)nc2ccccc21 (stereo not shown) [Example 111, 2-(4-Chloro-phenyl)-1-{1-cyclohexyl-2-[2,6-dimethyl-4-(1H-tetrazol-5-yl)-phenoxy]-ethyl}-1H-benzoimidazole]"
2,0.3,"O=C(O)c1cnc(OCC(C2CCCCC2)n2c(-c3ccc(Cl)cc3)nc3cc(F)c(F)cc32)c2ccsc12 (single isomer, unassigned; (+)) [Example 27, (+)-4-{2-[2-(4-Chloro-phenyl)-5,6-difluoro-benzoimidazol-1-yl]-2-cyclohexyl-ethoxy}-thieno[3,2-c]pyridine-7-carboxylic acid]"
3,0.05,"Fc1cc2nc(-c3ccc(Cl)cc3)n(C(COc3ccc(-c4nnn[nH]4)cc3F)C3CCCCC3)c2cc1F (single isomer, unassigned; (+)) [Example 80, (+)-2-(4-Chloro-phenyl)-1-{1-cyclohexyl-2-[2-fluoro-4-(1H-tetrazol-5-yl)-phenoxy]-ethyl}-5,6-difluoro-1H-benzoimidazole]"
4,0.6,"O=C(O)c1ccc(OCC(C2CCCCC2)n2c(-c3ccc(Cl)cc3)nc3cc(F)c(F)cc32)nc1 (single isomer, unassigned; (-)) [Example 21, (−)-6-{2-[2-(4-Chloro-phenyl)-5,6-difluoro-benzoimidazol-1-yl]-2-cyclohexyl-ethoxy}-nicotinic acid]"
5,0.001,"Cc1cc(-c2nnn[nH]2)cc(C)c1OCC(C1CCCCC1)n1c(-c2ccc(Cl)cc2)nc2cc(F)c(F)cc21 (single isomer, unassigned; (+)) [Example 72, (+)-2-(4-Chloro-phenyl)-1-{1-cyclohexyl-2-[2,6-dimethyl-4-(1H-tetrazol-5-yl)-phenoxy]-ethyl}-5,6-difluoro-1H-benzoimidazole]"
6,0.1,"Cc1cc(-c2nnn[nH]2)cc(C)c1OCC(C1CC1)n1c(-c2ccc(Cl)cc2)nc2cc(F)c(F)cc21 (stereo not shown) [Example 136, 2-(4-Chloro-phenyl)-1-{1-cyclopropyl-2-[2,6-dimethyl-4-(1H-tetrazol-5-yl)-phenoxy]-ethyl}-5,6-difluoro-1H-benzoimidazole]"
7,0.11,"O=C(O)C1(Oc2ccc(OCC(C3CCCCC3)n3c(-c4ccc(Cl)cc4)nc4cc(F)c(F)cc43)cc2)CCC1 (single isomer, unassigned; (-)) [Example 119, (−)-1-(4-{2-[2-(4-Chloro-phenyl)-5,6-difluoro-benzoimidazol-1-yl]-2-cyclohexyl-ethoxy}-phenoxy)-cyclobutanecarboxylic acid]"
8,0.01,"O=C(O)c1cc(F)c(OCC(C2CCCCC2)n2c(-c3ccc(Cl)cc3)nc3cc(F)c(F)cc32)c(F)c1 (stereo not shown) [Example 85, 4-{2-[2-(4-Chloro-phenyl)-5,6-difluoro-benzoimidazol-1-yl]-2-cyclohexyl-ethoxy}-3,5-difluoro-benzoic acid]"
9,0.1,"Cc1cc(C(=O)O)ccc1OCC(C1CCCCC1)n1c(-c2ccc(Cl)cc2)nc2cc(F)c(F)cc21 (single isomer, unassigned; (+)) [Example 13, (+)-4-{2-[2-(4-Chloro-phenyl)-5,6-difluoro-benzoimidazol-1-yl]-2-cyclohexyl-ethoxy}-3-methyl-benzoic acid]"
10,0.3,"O=C(O)c1ccc(OCC(C2CCCCCC2)n2c(-c3ccc(Cl)cc3)nc3cc(F)c(F)cc32)nc1 (stereo not shown) [Example 130, 6-{2-[2-(4-Chloro-phenyl)-5,6-difluoro-benzoimidazol-1-yl]-2-cycloheptyl-ethoxy}-nicotinic acid]"
11,0.001,"COc1ccc(-c2nc3cc(F)c(F)cc3n2C(CCc2ccc(C(=O)O)cc2)C2CCCCC2)c(OC)n1 (single isomer, unassigned; (-)) [Example 146, (−)-4-{3-Cyclohexyl-3-[2-(2,6-dimethoxy-pyridin-3-yl)-5,6-difluoro-benzoimidazol-1-yl]-propyl}-benzoic acid]"
12,0.04,"Fc1cc2nc(-c3ccc(Cl)cc3)n(C(COc3ccccc3F)C3CCCCC3)c2cc1F (stereo not shown) [Example 34, 2-(4-Chloro-phenyl)-1-[1-cyclohexyl-2-(2-fluoro-phenoxy)-ethyl]-5,6-difluoro-1H-benzoimidazole]"
13,0.0002,"COc1ccc(-c2nc3cc(F)c(F)cc3n2C(COc2c(C)cc(-c3nnn[nH]3)cc2C)C2CCCCC2)c(OC)n1 (single isomer, unassigned; (-)) [Example 101, (−)-1-{1-Cyclohexyl-2-[2,6-dimethyl-4-(1H-tetrazol-5-yl)-phenoxy]-ethyl}-2-(2,6-dimethoxy-pyridin-3-yl)-5,6-difluoro-1H-benzoimidazole]"
14,0.5,"O=C(O)c1cccc(OCC(C2CCCCC2)n2c(-c3ccc(Cl)cc3)nc3cc(F)c(F)cc32)n1 (stereo not shown) [Example 30, 6-{2-[2-(4-Chloro-phenyl)-5,6-difluoro-benzoimidazol-1-yl]-2-cyclohexyl-ethoxy}-pyridine-2-carboxylic acid]"
15,0.03,"Cc1cc(C(=O)O)cc(C)c1OCC(C1CCCCC1)n1c(-c2ccc(Cl)cc2)nc2cc(F)c(F)cc21 (stereo not shown) [Example 53, 4-{2-[2-(4-Chloro-phenyl)-5,6-difluoro-benzoimidazol-1-yl]-2-cyclohexyl-ethoxy}-3,5-dimethyl-benzoic acid]"
16,0.03,"Cc1cc(Cl)ccc1-c1nc2cc(F)c(F)cc2n1C(COc1c(F)cc(C(=O)O)cc1F)C1CCCCC1 (single isomer, unassigned; (+)) [Example 126, (+)-4-{2-[2-(4-Chloro-2-methyl-phenyl)-5,6-difluoro-benzoimidazol-1-yl]-2-cyclohexyl-ethoxy}-3,5-difluoro-benzoic acid]"
17,1,"O=C(O)c1ccc(OCC(C2CCCCC2)n2c(-c3ccc(Cl)cc3)nc3ccccc32)cc1 (stereo not shown) [Example 32, 4-{2-[2-(4-Chloro-phenyl)-benzoimidazol-1-yl]-2-cyclohexyl-ethoxy}-benzoic acid]"
18,0.03,"O=C(O)c1ccc(OCC(C2CCCCC2)n2c(-c3ccc(Cl)cc3)nc3cc(F)c(F)cc32)c(C(F)(F)F)c1 (stereo not shown) [Example 39, 4-{2-[2-(4-Chloro-phenyl)-5,6-difluoro-benzoimidazol-1-yl]-2-cyclohexyl-ethoxy}-3-trifluoromethyl-benzoic acid]"
19,0.2,"Fc1cc2nc(-c3ccc(Cl)cc3)n(C(COc3ccc(-c4nnn[nH]4)cn3)C3CCCCC3)c2cc1F (single isomer, unassigned; (+)) [Example 62, (+)-2-(4-Chloro-phenyl)-1-{1-cyclohexyl-2-[5-(1H-tetrazol-5-yl)-pyridin-2-yloxy]-ethyl}-5,6-difluoro-1H-benzoimidazole]"
20,0.05,"Fc1cc2nc(-c3ccc(Cl)cc3)n(C(COc3ccc(-c4nnn[nH]4)cn3)C3CCCCC3)c2cc1F (stereo not shown) [Example 56, 2-(4-Chloro-phenyl)-1-{1-cyclohexyl-2-[5-(1H-tetrazol-5-yl)-pyridin-2-yloxy]-ethyl}-5,6-difluoro-1H-benzoimidazole]"
21,0.01,"Fc1cc2nc(-c3ccc(Cl)cc3)n(C(COc3ccc(-c4nnn[nH]4)cc3F)C3CCCCC3)c2cc1F (stereo not shown) [Example 66, 2-(4-Chloro-phenyl)-1-{1-cyclohexyl-2-[2-fluoro-4-(1H-tetrazol-5-yl)-phenoxy]-ethyl}-5,6-difluoro-1H-benzoimidazole]"
22,0.03,"O=C(O)c1ccc(OCC(C2CCCCC2)n2c(-c3ccc(Cl)cc3)nc3cc(F)c(F)cc32)nc1 (single isomer, unassigned; (+)) [Example 20, (+)-6-{2-[2-(4-Chloro-phenyl)-5,6-difluoro-benzoimidazol-1-yl]-2-cyclohexyl-ethoxy}-nicotinic acid]"
23,0.003,"Cc1cc(Cl)ccc1-c1nc2cc(F)c(F)cc2n1C(COc1c(F)cc(C(=O)O)cc1F)C1CCCCC1 (stereo not shown) [Example 124, 4-{2-[2-(4-Chloro-2-methyl-phenyl)-5,6-difluoro-benzoimidazol-1-yl]-2-cyclohexyl-ethoxy}-3,5-difluoro-benzoic acid]"

# Same assay, conditions: h-IC50 Binding, 40 nM GST-FXR LBD on SPA beads, test compound 6×10^−9 M to 2.5×10^−5 M
row,SMILES,IC50 [µM]
1,"O=C(O)c1ccc(OCC(C2CCCCC2)n2c(-c3ccc(Cl)cc3)nc3cc(F)c(F)cc32)c(F)c1 (single isomer, unassigned; (-)) [Example 8, (−)-4-{2-[2-(4-Chloro-phenyl)-5,6-difluoro-benzoimidazol-1-yl]-2-cyclohexyl-ethoxy}-3-fluoro-benzoic acid]",0.02
2,"O=C(O)c1ccc(OCC(C2CCCCC2)n2c(-c3ccc(Cl)cc3)nc3cc(F)c(F)cc32)c(F)c1 (stereo not shown) [Example 7, 4-{2-[2-(4-Chloro-phenyl)-5,6-difluoro-benzoimidazol-1-yl]-2-cyclohexyl-ethoxy}-3-fluorobenzoic acid]",0.02
